Results published in patent US20090123512A1, “Quorum Sensing Modulators” (priority 2005, published 2009).

System: MW1
Assay: Elastase production in culture supernatant, MW1
Assay type: cell-based, Pseudomonas aeruginosa
Procedure: Elastase activity was measured according to the procedure described by Pearson et al. in J. Bacteriol. 179:5756-67 (1997) and pyocyanin concentration was measured according to the procedure described by Essar et al. in J. Bacteriol. 172:884-900 (1990). Protocols were modified slightly to be consistent with the conditions of transcriptional profiling. Cultures were grown in LB amended with 50 mM MOPS pH 7.0. Mid-log cultures were either subcultured directly (MW1) or washed twice with medium (PAO1) and then subcultured to an absorbance at 600 nm (A600) of 0.01. Cultures (1 mL) were grown in the presence of test compounds in 16 mm tubes at 37° C., 250 rpm.
For elastase activity, cultures were grown for 6 hours. Cells were removed by centrifugation and the culture supernatant filtered through a 0.2 μm filter. A 100 μL volume of filtered supernatant was added to 900 μL of 5 mg/mL Elastin Congo Red (Elastin Products Company; Owensville, Mo.) in 1 mM CaCl2, 100 mM Tris HCL, pH 7.2. Reactions were incubated at 37° C., 250 rpm for 18 h. Reactions were stopped by the addition of 100 μL 0.12 M EDTA, undigested substrate removed through centrifugation and the absorbance at 495 nm measured.

Compound | elastase activity in supernatant restored by exogenous signal (MW1, 0.3 μM (half-maximal) 3-oxo-C12-HSL alone) | elastase activity in supernatant restored by exogenous signal (MW1, saturating 3-oxo-C12-HSL (25 μM) in addition to saturating C4-HSL (25 μM)) | elastase activity in supernatant restored by exogenous signal (MW1, 25 μM C4-HSL added to 0.3 μM 3-oxo-C12-HSL)
CCCCCCCCCC(=O)CC(=O)NC1CCOC1=O (stereo not drawn) [3-oxo-C12-HSL, 3-oxo-dodecanoyl homoserine lactone] | restored about one third of the achievable activity | did not increase elastase activity further | 
CCCC(=O)N[C@H]1CCOC1=O [Compound C4-HSL, butyryl homoserine lactone] |  |  | maximal elastase activity was measured
